Test system: 435261-313-R-J1-PDC complex spheroid viability
Assay: Anticancer human tumor 435261-313-R-J1-PDC patient-derived colon adenocarcinoma cell line growth inhibition [GQUAD]
Conditions: for IC50: curve of first compound; for viability, T/C: stronger effect = lower value
Summary of the method: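 Tumor cells were grown as complex spheroids with HUVEC endothelial cells and mesenchymal stem cells as stroma. G-quadruplex stabilizers were combined with targeted agents over half-log dilutions from near the clinical Cmax, or from 10 microM.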

[1] = second compound 0.0316 µM, first compound 0.0316 µM
[2] = second compound 0.0316 µM, first compound 0.1 µM
[3] = second compound 0.0316 µM, first compound 0.316 µM
[4] = second compound 0.0316 µM, first compound 1 µM
[5] = second compound 0.0316 µM, first compound 3.16 µM
[6] = second compound 0.0316 µM, first compound 10 µM
[7] = second compound 0.1 µM, first compound 0.0316 µM
[8] = second compound 0.1 µM, first compound 0.1 µM
[9] = second compound 0.1 µM, first compound 0.316 µM
[10] = second compound 0.1 µM, first compound 1 µM
[11] = second compound 0.1 µM, first compound 3.16 µM
[12] = second compound 0.1 µM, first compound 10 µM
[13] = second compound 0.316 µM, first compound 0.0316 µM
[14] = second compound 0.316 µM, first compound 0.1 µM
[15] = second compound 0.316 µM, first compound 0.316 µM
[16] = second compound 0.316 µM, first compound 1 µM
[17] = second compound 0.316 µM, first compound 3.16 µM
[18] = second compound 0.316 µM, first compound 10 µM
[19] = second compound 1 µM, first compound 0.0316 µM
[20] = second compound 1 µM, first compound 0.1 µM
[21] = second compound 1 µM, first compound 0.316 µM
[22] = second compound 1 µM, first compound 1 µM
[23] = second compound 1 µM, first compound 3.16 µM
[24] = second compound 1 µM, first compound 10 µM
[25] = second compound 3.16 µM, first compound 0.0316 µM
[26] = second compound 3.16 µM, first compound 0.1 µM
[27] = second compound 3.16 µM, first compound 0.316 µM
[28] = second compound 3.16 µM, first compound 1 µM
[29] = second compound 3.16 µM, first compound 3.16 µM
[30] = second compound 3.16 µM, first compound 10 µM
[31] = second compound 10 µM, first compound 0.0316 µM
[32] = second compound 10 µM, first compound 0.1 µM
[33] = second compound 10 µM, first compound 0.316 µM
[34] = second compound 10 µM, first compound 1 µM
[35] = second compound 10 µM, first compound 3.16 µM
[36] = second compound 10 µM, first compound 10 µM
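Also: spheroids exposed to the agents for seven days before readout.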
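For viability, T/C in this document: percent of vehicle control viability with DMSO wells as 100%.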

**Q.** Which results are given for `C#Cc1c(F)ccc2cc(O)cc(-c3ncc4c(N5CC6CCC(C5)N6)nc(OCC56CCCN5CC(F)C6)nc4c3F)c12` (stereo unspecified) + Cc1cnc(CNC(=O)c2c(=O)c3ccc(N4CCCN(C)CC4)nc3n3c2sc2ccccc23)cn1?
**A.** IC50 (second compound 0.0316 µM): 1840 nM; IC50 (second compound 0.1 µM): 341 nM; IC50 (second compound 0.316 µM): 448 nM; IC50 (second compound 1 µM): < 31.6 nM; IC50 (second compound 3.16 µM): < 31.6 nM; IC50 (second compound 10 µM): < 31.6 nM; viability, T/C [1]: 74.5%; viability, T/C [2]: 61%; viability, T/C [3]: 71.5%; viability, T/C [4]: 50.5%; viability, T/C [5]: 45.9%; viability, T/C [6]: 34.7%; viability, T/C [7]: 59.5%; viability, T/C [8]: 62.2%; viability, T/C [9]: 49.8%; viability, T/C [10]: 36.6%; viability, T/C [11]: 43.1%; viability, T/C [12]: 29.6%; viability, T/C [13]: 53%; viability, T/C [14]: 59.6%; viability, T/C [15]: 55.4%; viability, T/C [16]: 37.8%; viability, T/C [17]: 34.8%; viability, T/C [18]: 30.5%; viability, T/C [19]: 37.4%; viability, T/C [20]: 34.4%; viability, T/C [21]: 34.1%; viability, T/C [22]: 34.3%; viability, T/C [23]: 30%; viability, T/C [24]: 17.1%; viability, T/C [25]: 0.16%; viability, T/C [26]: 6.4%; viability, T/C [27]: 0.17%; viability, T/C [28]: 6.39%; viability, T/C [29]: 0.17%; viability, T/C [30]: 0.15%; viability, T/C [31]: 0.12%; viability, T/C [32]: 0.14%; viability, T/C [33]: 0.16%; viability, T/C [34]: 0.16%; viability, T/C [35]: 0.22%; viability, T/C [36]: 0.18%

**Q.** Which IC50 (second compound 0.0316 µM) does the source give for `C=CCn1c(=O)c2cnc(Nc3ccc(N4CCN(C)CC4)cc3)nc2n1-c1cccc(C(C)(C)O)n1` + Cc1cnc(CNC(=O)c2c(=O)c3ccc(N4CCCN(C)CC4)nc3n3c2sc2ccccc23)cn1 here?
**A.** > 10000 nM

**Q.** And the IC50 (second compound 0.1 µM)?
**A.** 266 nM

**Q.** And the IC50 (second compound 0.316 µM)?
**A.** 2250 nM

**Q.** And the IC50 (second compound 1 µM)?
**A.** < 31.6 nM

**Q.** What about the IC50 (second compound 3.16 µM) of the same compound?
**A.** < 31.6 nM

**Q.** What about the IC50 (second compound 10 µM) of the same compound?
**A.** < 31.6 nM

**Q.** What about the viability, T/C [1] of the same compound?
**A.** 67.6%

**Q.** And the viability, T/C [2]?
**A.** 59.2%

**Q.** What about the viability, T/C [3] of the same compound?
**A.** 59.4%

**Q.** What about the viability, T/C [4] of the same compound?
**A.** 57%

**Q.** What about the viability, T/C [5] of the same compound?
**A.** 52.7%

**Q.** What about the viability, T/C [6] of the same compound?
**A.** 51.3%

**Q.** What about the viability, T/C [7] of the same compound?
**A.** 61.3%

**Q.** What about the viability, T/C [8] of the same compound?
**A.** 56.1%

**Q.** What about the viability, T/C [9] of the same compound?
**A.** 44.4%

**Q.** What about the viability, T/C [10] of the same compound?
**A.** 47.8%

**Q.** What about the viability, T/C [11] of the same compound?
**A.** 54.4%

**Q.** And the viability, T/C [12]?
**A.** 42.4%

**Q.** And the viability, T/C [13]?
**A.** 54%

**Q.** What about the viability, T/C [14] of the same compound?
**A.** 59.2%

**Q.** What about the viability, T/C [15] of the same compound?
**A.** 49.9%

**Q.** What about the viability, T/C [16] of the same compound?
**A.** 52.9%

**Q.** And the viability, T/C [17]?
**A.** 49.6%

**Q.** What about the viability, T/C [18] of the same compound?
**A.** 36.8%

**Q.** What about the viability, T/C [19] of the same compound?
**A.** 34.9%

**Q.** And the viability, T/C [20]?
**A.** 39.6%

**Q.** What about the viability, T/C [21] of the same compound?
**A.** 36.2%

**Q.** What about the viability, T/C [22] of the same compound?
**A.** 39.1%

**Q.** And the viability, T/C [23]?
**A.** 41.2%

**Q.** And the viability, T/C [24]?
**A.** 30.5%

**Q.** What about the viability, T/C [25] of the same compound?
**A.** 14%

**Q.** What about the viability, T/C [26] of the same compound?
**A.** 4.69%

**Q.** What about the viability, T/C [27] of the same compound?
**A.** 8.48%

**Q.** And the viability, T/C [28]?
**A.** 4.99%

**Q.** What about the viability, T/C [29] of the same compound?
**A.** 5.92%

**Q.** What about the viability, T/C [30] of the same compound?
**A.** 0.17%

**Q.** What about the viability, T/C [31] of the same compound?
**A.** 0.17%

**Q.** And the viability, T/C [32]?
**A.** 0.17%

**Q.** And the viability, T/C [33]?
**A.** 0.19%

**Q.** And the viability, T/C [34]?
**A.** 0.16%

**Q.** And the viability, T/C [35]?
**A.** 0.19%

**Q.** What about the viability, T/C [36] of the same compound?
**A.** 0.15%

**Q.** With `COc1ncnc(C2CC2)c1-c1ncc2cnn(Cc3ccc(-c4nc(C(F)(F)F)cn4C(C)C)cc3)c2n1` + Cc1cnc(CNC(=O)c2c(=O)c3ccc(N4CCCN(C)CC4)nc3n3c2sc2ccccc23)cn1 as the compound, how does the IC50 (second compound 0.0316 µM) read?
**A.** > 10000 nM

**Q.** And the IC50 (second compound 0.1 µM)?
**A.** > 10000 nM

**Q.** And the IC50 (second compound 0.316 µM)?
**A.** < 31.6 nM

**Q.** What about the IC50 (second compound 1 µM) of the same compound?
**A.** < 31.6 nM

**Q.** And the IC50 (second compound 3.16 µM)?
**A.** < 31.6 nM

**Q.** What about the IC50 (second compound 10 µM) of the same compound?
**A.** < 31.6 nM

**Q.** And the viability, T/C [1]?
**A.** 63.8%

**Q.** What about the viability, T/C [2] of the same compound?
**A.** 55.6%

**Q.** What about the viability, T/C [3] of the same compound?
**A.** 61.9%

**Q.** And the viability, T/C [4]?
**A.** 55.2%

**Q.** And the viability, T/C [5]?
**A.** 65.9%

**Q.** And the viability, T/C [6]?
**A.** 55.6%

**Q.** And the viability, T/C [7]?
**A.** 65.5%

**Q.** What about the viability, T/C [8] of the same compound?
**A.** 59.7%

**Q.** And the viability, T/C [9]?
**A.** 51.1%

**Q.** And the viability, T/C [10]?
**A.** 53.5%

**Q.** What about the viability, T/C [11] of the same compound?
**A.** 61.9%

**Q.** What about the viability, T/C [12] of the same compound?
**A.** 53.8%

**Q.** And the viability, T/C [13]?
**A.** 48.4%

**Q.** And the viability, T/C [14]?
**A.** 53.7%

**Q.** And the viability, T/C [15]?
**A.** 52.4%

**Q.** And the viability, T/C [16]?
**A.** 48.5%

**Q.** What about the viability, T/C [17] of the same compound?
**A.** 55.1%

**Q.** What about the viability, T/C [18] of the same compound?
**A.** 54.3%

**Q.** What about the viability, T/C [19] of the same compound?
**A.** 32.6%

**Q.** And the viability, T/C [20]?
**A.** 40.8%

**Q.** What about the viability, T/C [21] of the same compound?
**A.** 40.7%

**Q.** What about the viability, T/C [22] of the same compound?
**A.** 31.8%

**Q.** What about the viability, T/C [23] of the same compound?
**A.** 42.1%

**Q.** What about the viability, T/C [24] of the same compound?
**A.** 37.2%

**Q.** And the viability, T/C [25]?
**A.** 17.9%

**Q.** And the viability, T/C [26]?
**A.** 10.5%

**Q.** What about the viability, T/C [27] of the same compound?
**A.** 17.6%

**Q.** And the viability, T/C [28]?
**A.** 8.94%

**Q.** What about the viability, T/C [29] of the same compound?
**A.** 15.1%

**Q.** What about the viability, T/C [30] of the same compound?
**A.** 17.2%

**Q.** And the viability, T/C [31]?
**A.** 0.18%

**Q.** And the viability, T/C [32]?
**A.** 0.17%

**Q.** And the viability, T/C [33]?
**A.** 0.23%

**Q.** And the viability, T/C [34]?
**A.** 0.19%

**Q.** And the viability, T/C [35]?
**A.** 0.2%

**Q.** And the viability, T/C [36]?
**A.** 0.18%

— PubChem BioAssay AID2060494 (Molecular Pharmacology Branch, DTP, NCI, 2025)
